Measurements: PubChem BioAssay (NCI)
Values joined by “and” are separate entries in the source; they are usually repeats but may differ in a detail not shown here. Equal entries are not always repeated.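 Growth conditions: 96-well plates. Treatment: test compound, 48 hours, 5 concentrations. Analysis: linear interpolation between bracketing concentrations; unreached endpoints set to highest concentration. GI50 = concentration required for 50% inhibition of growth. Definition used: TGI = concentration required for complete inhibition of growth.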

Key:
Assay in all cases: NCI-60 cell line screen, 48 h
CCRF-CEM leukemia = tested on: CCRF-CEM leukemia
COLO 205 colon = tested on: COLO 205 colon
EKVX NSCLC = tested on: EKVX NSCLC
HL-60(TB) leukemia = tested on: HL-60(TB) leukemia
MDA-MB-231 breast = tested on: MDA-MB-231 breast
SF-539 CNS = tested on: SF-539 CNS
SN12C renal = tested on: SN12C renal
SNB-75 CNS = tested on: SNB-75 CNS
HOP-18 NSCLC = tested on: HOP-18 NSCLC

| SMILES | GI50 (CCRF-CEM leukemia) | TGI (CCRF-CEM leukemia) | GI50 (COLO 205 colon) | TGI (COLO 205 colon) | GI50 (EKVX NSCLC) | TGI (EKVX NSCLC) | GI50 (HL-60(TB) leukemia) | TGI (HL-60(TB) leukemia) | GI50 (MDA-MB-231 breast) | TGI (MDA-MB-231 breast) | GI50 (SF-539 CNS) | TGI (SF-539 CNS) | GI50 (SN12C renal) | TGI (SN12C renal) | GI50 (SNB-75 CNS) | TGI (SNB-75 CNS) | TGI (HOP-18 NSCLC) |
| --- | --- | --- | --- | --- | --- | --- | --- | --- | --- | --- | --- | --- | --- | --- | --- | --- | --- |
| CN1CCC2(CC1)C(=O)Nc1cc(NC(=O)c3ccc4c(c3)C[C@@H]3C(C)(C)[C@H](O)[C@H](F)C[C@@]3(C)O4)ccc12 | 0.092 µM | > 100 µM | 1840 nM | 7.36 µM | 29800 nM | > 100 µM | 84.2 nM | 13.7 µM | 3.36 µM | 21.1 µM | 56.5 nM | 15.9 µM | 13200 nM | > 100 µM | 37.3 nM | 4.8 µM |  |
| O=C1C2C3SC(c4cc5ccccc5cc43)C2C(=O)N1c1ccccc1 (configuration not stated) |  | > 100 µM |  | > 100 µM |  | > 100 µM |  | > 100 µM |  |  |  | > 100 µM |  | > 100 µM |  | 45.4 µM | > 100 µM |
| O=C(Nc1ccccc1/C=C/c1n[nH]c2ccccc12)c1ccccc1 | 4.05 µM | 22.3 µM | 1710 nM | 3.6 µM | 1340 nM | 8.91 µM | 589 nM | 16.2 µM | 3.45 µM | 15.7 µM | 4260 nM | 14.1 µM | 2000 nM | 5.4 µM | 9040 nM | 23.9 µM |  |
| O=S1(=O)[C@H](c2ccccc2)c2c(-c3ccccc3)sc(-c3ccccc3)c2[C@@H]1c1ccccc1 |  | > 100 µM |  | > 100 µM |  | > 100 µM |  | > 100 µM |  |  |  | > 100 µM |  | > 100 µM |  | > 100 µM | > 100 µM |
| CCOC(=O)c1sc2nc(=S)[nH]c(NC(N)=S)c2c1C | 7.22 µM | 73.9 µM | 18600 nM | 48.4 µM | 2490 nM | 30.6 µM | 51200 nM | > 100 µM | 12.1 µM | 31.9 µM | 11900 nM | 25.4 µM | 13100 nM | 26.9 µM | 21400 nM | 66.6 µM |  |
| COc1cc(OC)c(OC)cc1/C=C/c1ccccn1 |  | > 10 µM |  | > 10 µM |  | > 10 µM |  | > 10 µM |  | > 10 µM |  | > 10 µM |  | > 10 µM |  | > 10 µM |  |
| CC[C@@H]1C(=O)N(C)c2cnc(Nc3ccc(C(=O)NC4CCC(N5CCN(CC6CC6)CC5)CC4)cc3OC)nc2N1C(C)C (some centres not stated) | 0.00974 µM and < 0.01 µM | > 7.37 µM and 4.22 µM | 4.38 nM and < 10 nM | 0.276 µM and 0.268 µM | 74.9 nM and 234 nM | > 10 µM and 21.6 µM | 2.86 nM and < 16.7 nM | 0.0596 µM and 0.0871 µM | 0.0186 µM and 0.0304 µM | > 4.6 µM and 7.06 µM | 40.9 nM and 37.2 nM | 1.36 µM and 1.48 µM | 91.7 nM and 173 nM | > 10 µM and 15.1 µM | 29.6 nM and 34.4 nM | 6.73 µM |  |
| C[C@]12CC[C@H]3[C@@H](CCC4=CC(=O)CC[C@@]43C)[C@]1(O)CC[C@]2(O)C(=O)CO |  | > 100 µM |  | > 100 µM |  | > 100 µM |  | > 100 µM |  | > 100 µM |  | > 100 µM |  | > 100 µM |  | > 100 µM |  |
| COc1cc(-c2csc(NC(=O)Nc3ccc(Cl)cc3)n2)cc(OC)c1OC | 3.44 µM | > 49.9 µM | 2520 nM | 7.05 µM | 2770 nM | > 64.5 µM | 2790 nM | 6.83 µM | 2.99 µM | 12.7 µM | 2980 nM | 13.7 µM | 3180 nM | 13.7 µM | 2120 nM | 8.39 µM |  |
